Test results reported in patent publication US20210130339A1, “COMPOUNDS” (GLAXOSMITHKLINE INTELLECTUAL PROPERTY DEVELOPMENT LIMITED, priority 2017, published 2021).
Values joined by “and” are separate entries in the source; they are usually repeats but may differ in a detail not shown here. Equal entries are not always repeated.

Target: T1, recombinant full length LRRK2 (Homo sapiens, UniProt Q5S007)
T1 construct: A BacMam virus expressing full length recombinant LRRK2 was purchased from Invitrogen; host or cells: SH-SY5Y human neuroblastoma cells transduced with BacMam LRRK2 virus (MOI 50)
Assay: Recombinant cellular LRRK2 AlphaScreen assay
Assay type: cell-based
Conditions: LRRK2 Ser935 phosphorylation, SH-SY5Y cells over-expressing recombinant full length LRRK2; read-out: pIC50 in the recombinant cellular LRRK2 AlphaScreen assay (converted)
Source text: b. Recombinant Cellular LRRK2 AlphaScreen Assay
To determine the activity of compounds against LRRK2 kinase activity in cells, the observed LRRK2 kinase-dependent modulation of LRRK2 Ser 935 phosphorylation (Dzamko et al., 2010, Biochem. J. 430: 405-413) was utilized to develop a quantitative 384 well plate-based immunoassay of LRRK2 Ser935 phosphorylation in the human neuroblastoma cell line SH-SY5Y, engineered to over-express recombinant full length LRRK2 protein. A BacMam virus expressing full length recombinant LRRK2 was purchased from Invitrogen and amplified by inoculation of SF-9 cells at MOI 0.3 for 4-5 days in Sf-900 III SFM medium supplemented with 3% fetal bovine serum. Infected cell cultures were then centrifuged at 2000 g for 20 minutes, viral supernatant titer determined by anti-gp64 plaque assay and stored at 4° C. Affinity-purified anti-phospho LRRK2 Ser935 sheep polyclonal antibody (Dzamko et al., 2010, Biochem. J. 430: 405-413) was biotinylated by standard methods (PerkinElmer). Anti-LRRK2 rabbit polyclonal antibody was purchased from Novus Biologicals. AlphaScreen Protein A IgG Kit (including acceptor and donor beads) was purchased from Perkin Elmer. SH-SY5Y cells were grown in DMEM/F12 medium with 10% dialysed fetal bovine serum and harvested by treatment with 0.5% trypsin-EDTA for 5 minutes at 37° C. followed by centrifugation at 1000 rpm for 4 minutes. The cell pellet was resuspended in Opti-MEM reduced serum media (Invitrogen) at 200,000 cells/ml and mixed with the BacMam LRRK2 virus at MOI=50. 50 μl cell solutions were then dispensed to each well of a 384-well plate and incubated at 37° C., 5% CO2 for 24 hours. Serial dilutions of test compounds were prepared in Opti-MEM reduced serum media (Invitrogen) and 5.6 ul transferred from compound plate to cell assay plate to achieve a top final assay concentration of 10 uM. DMSO was used in certain wells as controls. Cells were incubated at 37° C., 5% CO2 for 60 minutes. The medium was then removed and cells lysed by addition of 20 ul cell lysis buffer (Cell Signaling Technology) and incubation at 4° C. for 20 minutes. 10 ul of antibody/acceptor bead mix [(1/1000 biotinylated-pS935 LRRK2 antibody, 1/1000 total-LRRK2 antibody, 1/100 Acceptor beads in AlphaScreen detection buffer (25 mM Hepes (pH 7.4), 0.5% Triton X-100, 1 mg/ml Dextran 500 and 0.1% BSA)] was then added to each well and plates incubated for 2 hours at ambient temperature in the dark. 10 μl of donor beads solution (1/33.3 donor beads in AlphaScreen detection buffer) was then added to each well. Following incubation for a further 2 hours at ambient temperature in the dark, plates were read on an EnVision™ plate reader at emission 520-620 nm with excitation 680 nm. Dose response curve data was based on sigmoidal dose-response model.

T1 sequence (Q5S007 whole entry): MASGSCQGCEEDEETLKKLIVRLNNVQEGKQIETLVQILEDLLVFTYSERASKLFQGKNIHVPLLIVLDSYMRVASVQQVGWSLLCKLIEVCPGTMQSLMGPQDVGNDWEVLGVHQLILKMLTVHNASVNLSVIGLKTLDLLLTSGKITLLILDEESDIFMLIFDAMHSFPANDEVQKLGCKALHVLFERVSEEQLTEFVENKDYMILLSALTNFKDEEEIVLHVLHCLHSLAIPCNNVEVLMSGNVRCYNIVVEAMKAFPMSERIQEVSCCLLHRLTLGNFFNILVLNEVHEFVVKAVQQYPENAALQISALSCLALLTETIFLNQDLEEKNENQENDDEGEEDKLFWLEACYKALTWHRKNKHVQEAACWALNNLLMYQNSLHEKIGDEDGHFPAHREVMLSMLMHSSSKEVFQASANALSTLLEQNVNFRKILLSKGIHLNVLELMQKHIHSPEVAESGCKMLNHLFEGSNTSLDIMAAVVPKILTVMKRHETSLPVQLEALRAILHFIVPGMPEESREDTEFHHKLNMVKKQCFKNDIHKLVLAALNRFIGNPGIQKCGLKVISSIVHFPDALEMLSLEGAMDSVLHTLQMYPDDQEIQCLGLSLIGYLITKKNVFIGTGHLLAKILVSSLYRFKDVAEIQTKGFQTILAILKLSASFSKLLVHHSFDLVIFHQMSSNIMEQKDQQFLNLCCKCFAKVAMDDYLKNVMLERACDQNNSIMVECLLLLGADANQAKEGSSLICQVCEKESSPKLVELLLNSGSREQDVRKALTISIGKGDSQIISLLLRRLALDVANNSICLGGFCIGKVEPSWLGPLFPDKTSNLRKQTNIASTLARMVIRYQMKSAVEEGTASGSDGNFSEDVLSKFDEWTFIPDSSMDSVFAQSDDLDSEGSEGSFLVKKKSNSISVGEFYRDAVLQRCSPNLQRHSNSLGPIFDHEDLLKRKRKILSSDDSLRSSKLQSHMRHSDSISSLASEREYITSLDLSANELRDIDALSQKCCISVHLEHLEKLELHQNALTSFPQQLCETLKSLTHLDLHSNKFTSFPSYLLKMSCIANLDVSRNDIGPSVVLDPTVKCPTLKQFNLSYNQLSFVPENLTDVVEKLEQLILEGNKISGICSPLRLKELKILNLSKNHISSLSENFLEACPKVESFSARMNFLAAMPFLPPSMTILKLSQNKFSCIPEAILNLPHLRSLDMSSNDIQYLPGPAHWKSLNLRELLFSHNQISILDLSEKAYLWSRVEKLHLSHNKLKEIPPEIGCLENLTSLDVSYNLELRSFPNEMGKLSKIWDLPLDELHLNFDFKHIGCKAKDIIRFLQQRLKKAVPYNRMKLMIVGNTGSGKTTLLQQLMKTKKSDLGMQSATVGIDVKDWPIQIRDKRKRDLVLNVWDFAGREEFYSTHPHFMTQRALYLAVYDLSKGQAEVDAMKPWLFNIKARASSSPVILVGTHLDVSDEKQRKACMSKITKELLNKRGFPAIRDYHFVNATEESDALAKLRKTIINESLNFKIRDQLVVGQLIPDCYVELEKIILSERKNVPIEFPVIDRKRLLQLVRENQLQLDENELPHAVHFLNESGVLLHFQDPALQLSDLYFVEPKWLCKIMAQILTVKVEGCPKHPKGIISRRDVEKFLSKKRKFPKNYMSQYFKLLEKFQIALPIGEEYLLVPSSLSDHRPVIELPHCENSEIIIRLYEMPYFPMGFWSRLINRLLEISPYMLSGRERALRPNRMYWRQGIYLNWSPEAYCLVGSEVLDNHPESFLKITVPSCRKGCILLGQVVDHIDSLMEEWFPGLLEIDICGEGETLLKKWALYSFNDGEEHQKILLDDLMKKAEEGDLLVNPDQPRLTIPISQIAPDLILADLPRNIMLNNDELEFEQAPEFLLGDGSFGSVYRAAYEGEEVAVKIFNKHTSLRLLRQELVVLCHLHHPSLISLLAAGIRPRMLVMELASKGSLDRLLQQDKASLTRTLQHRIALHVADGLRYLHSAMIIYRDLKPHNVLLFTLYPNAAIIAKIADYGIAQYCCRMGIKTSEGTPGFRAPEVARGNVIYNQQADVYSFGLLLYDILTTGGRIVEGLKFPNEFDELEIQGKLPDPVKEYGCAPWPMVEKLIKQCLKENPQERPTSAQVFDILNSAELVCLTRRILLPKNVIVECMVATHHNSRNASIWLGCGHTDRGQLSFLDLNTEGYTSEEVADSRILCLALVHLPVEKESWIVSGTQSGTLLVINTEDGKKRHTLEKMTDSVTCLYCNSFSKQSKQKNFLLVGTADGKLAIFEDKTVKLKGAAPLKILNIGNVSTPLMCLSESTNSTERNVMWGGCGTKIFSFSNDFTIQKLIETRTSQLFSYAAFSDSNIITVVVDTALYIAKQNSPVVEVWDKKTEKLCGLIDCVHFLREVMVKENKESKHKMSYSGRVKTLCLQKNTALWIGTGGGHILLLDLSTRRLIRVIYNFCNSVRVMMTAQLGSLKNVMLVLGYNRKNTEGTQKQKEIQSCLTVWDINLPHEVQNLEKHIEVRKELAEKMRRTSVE

| Compound | IC50 |
| --- | --- |
| COc1nc(N2CC(C)(O)C2)cc(-n2ncc3cc(C)c(C4CCN(C5CCOC5)CC4)cc32)n1 (single isomer, unassigned) [Example E11, 1-(2-Methoxy-6-(5-methyl-6-(1-(tetrahydrofuran-3-yl)piperidin-4-yl)-1H-indazol-1-yl)pyrimidin-4-yl)-3-methylazetidin-3-ol] | ≤ 0.1 µM |
| COc1nc(N2CC[C@@H](O)C2)cc(-n2ncc3cc(C)c(C4CCN(C5CCOC5)CC4)cc32)n1 (single isomer, unassigned) [Example E19] | ≤ 0.1 µM |
| COc1nc(N2CCOC(C(C)O)C2)cc(-n2ncc3cc(C)c(C4CCN(C5CCOC5)CC4)cc32)n1 (single isomer, unassigned) [Example E21, 1-(4-(2-Methoxy-6-(5-methyl-6-(1-(tetrahydrofuran-3-yl)piperidin-4-yl)-1H-indazol-1-yl)pyrimidin-4-yl)morpholin-2-yl)ethanol] | ≤ 0.1 µM |
| COc1nc(N2CC(O)C2)cc(-n2ncc3cc(Cl)c(C4CCN(C5CCOC5)CC4)cc32)n1 (single isomer, unassigned) [Example E29, 1-(6-(5-Chloro-6-(1-(tetrahydrofuran-3-yl)piperidin-4-yl)-1H-indazol-1-yl)-2-methoxy-pyrimidin-4-yl)azetidin-3-ol] | ≤ 0.01 µM |
| [2H]C1(N2CCC(c3cc4c(cnn4-c4cc(N5CCO[C@@H](CO)C5)nc(C)n4)cc3C)CC2)CCOC1 (single isomer, unassigned) [Example E35] | 0.2 µM |
| Cc1nc(N2CC(CC(C)O)C2)cc(-n2ncc3cc(Cl)c(C4CCN(C5CCOC5)CC4)cc32)n1 (single isomer, unassigned) [Example E44, 1-(1-(6-(5-Chloro-6-(1-(tetrahydrofuran-3-yl)piperidin-4-yl)-1H-indazol-1-yl)-2-methylpyr-imidin-4-yl)azetidin-3-yl)propan-2-ol] | ≤ 0.1 µM |
| Cc1nc(N2CC(C)OC(CO)C2)cc(-n2ncc3cc(C)c(C4CCN(C5CCOC5)CC4)cc32)n1 (single isomer, unassigned) [Example E60, (6-Methyl-4-(2-methyl-6-(5-methyl-6-(1-(tetrahydrofuran-3-yl)piperidin-4-yl)-1H-indazol-1-yl)pyrimidin-4-yl)morpholin-2-yl)methanol] | ≤ 0.1 µM |
| COc1nc(N2CC(C(C)O)C2)cc(-n2ncc3cc(C)c(C4CCN(C5CCOC5)CC4)cc32)n1 (single isomer, unassigned) [Example E97, 1-(1-(2-methoxy-6-(5-methyl-6-(1-(tetrahydrofuran-3-yl)piperidin-4-yl)-1H-indazol-1-yl)pyrimidin-4-yl)azetidin-3-yl)ethanol] | ≤ 0.1 µM |
| COc1nc(N2CC(C(C)O)C2)cc(-n2ncc3cc(C)c(C4CCN(C5CCOC5)CC4)cc32)n1 (single isomer, unassigned) [Example E98, 1-(1-(2-methoxy-6-(5-methyl-6-(1-(tetrahydrofuran-3-yl)piperidin-4-yl)-1H-indazol-1-yl)pyrimidin-4-yl)azetidin-3-yl)ethanol] | ≤ 0.1 µM |
| COc1nc(N2CC(C(C)O)C2)cc(-n2ncc3cc(C)c(C4CCN(C5CCOC5)CC4)cc32)n1 (single isomer, unassigned) [Example E100, 1-(1-(2-methoxy-6-(5-methyl-6-(1-(tetrahydrofuran-3-yl)piperidin-4-yl)-1H-indazol-1-yl)pyrimidin-4-yl)azetidin-3-yl)ethanol] | ≤ 1 µM |
| Cc1nc(N2CCO[C@@H](CO)C2)cc(-n2ncc3cc(C)c(C4CCN(C5CCOC5)CC4F)cc32)n1 (single isomer, unassigned) [Example E101] | ≤ 0.1 µM |
| Cc1nc(N2CCO[C@H](CO)C2)cc(-n2ncc3cc(C)c(C4CCN(C5CCOC5)CC4F)cc32)n1 (single isomer, unassigned) [Example E103] | ≤ 0.1 µM |
| Cc1nc(N2CCO[C@H](CO)C2)cc(-n2ncc3cc(C)c(C4CCN(C5CCOC5)CC4F)cc32)n1 (single isomer, unassigned) [Example E104] | ≤ 0.1 µM |
| Cc1nc(N2CCO[C@H](CO)C2)cc(-n2ncc3cc(C)c(C4CCN(C5CCOC5)CC4F)cc32)n1 (single isomer, unassigned) [Example E105] | ≤ 0.1 µM |
| COc1nc(N2CCO[C@H](CO)C2)cc(-n2ncc3cc(C)c(C4CCN(C5CCOC5)CC4F)cc32)n1 (single isomer, unassigned) [Example E123] | ≤ 0.01 µM |
| Cc1nc(N2CCO[C@@H](CO)C2)cc(-n2ncc3cc(Cl)c(C4CCN(C5CCOC5)CC4)cc32)n1 (single isomer, unassigned) [Example E129] | ≤ 1 µM |
| Cc1nc(N[C@H]2C[C@H](O)C2)cc(-n2ncc3cc(C)c(C4CCN(C5CCOC5)CC4)cc32)n1 (single isomer, unassigned) [Example E132, trans-3-((2-methyl-6-(5-methyl-6-(1-(tetrahydrofuran-3-yl)piperidin-4-yl)-1H-indaz-ol-1-yl)pyrimidin-4-yl)amino)cyclobutanol] | ≤ 1 µM |
| [2H]C1([2H])CC(c2cc3c(cnn3-c3cc(N4CCO[C@@H](CO)C4)nc(C)n3)cc2C)CC([2H])([2H])N1[C@H]1CCOC1 [Example E96, ((R)-4-(2-methyl-6-(5-methyl-6-(1-((S)-tetrahydrofuran-3-yl)piperidin-4-yl-2,2,6,6-d4)-1H-indazol-1-yl)pyrimidin-4-yl)morpholin-2-yl)methanol] | ≤ 0.1 µM and 0.1 µM |

The next lines start with the values.

| IC50 | Compound |
| --- | --- |
| ≤ 0.01 µM and 0.00501 µM | COc1nc(N2CC(O)C2)cc(-n2ncc3cc(C)c(C4CCN(C5CCOC5)CC4F)cc32)n1 (single isomer, unassigned) [Example E5, cis-1-(6-(6-(3-Fluoro-1-(tetrahydrofuran-3-yl)piperidin-4-yl)-5-methyl-1H-indazol-1-yl)-2-methoxypyrimidin-4-yl)azetidin-3-ol] |
| ≤ 0.1 µM | COc1nc(N2CC[C@H](O)C2)cc(-n2ncc3cc(C)c(C4CCN(C5CCOC5)CC4)cc32)n1 (single isomer, unassigned) [Example E17] |
| ≤ 0.1 µM | Cc1nc(N2CCO[C@H](CO)C2)cc(-n2ncc3cc(Cl)c(C4CCN(C5CCOC5)CC4)cc32)n1 (single isomer, unassigned) [Example E25] |
| 0.158 µM | [2H]C1(N2CCC(c3cc4c(cnn4-c4cc(N5CCO[C@@H](CO)C5)nc(C)n4)cc3C)CC2)CCOC1 (single isomer, unassigned) [Example E36] |
| ≤ 0.01 µM | COc1nc(N2CCNC(=O)C2)cc(-n2ncc3cc(C)c(C4CCN(C5CCOC5)CC4F)cc32)n1 (single isomer, unassigned) [Example E53, 4-(6-(6-(3-Fluoro-1-(tetrahydrofuran-3-yl)piperidin-4-yl)-5-methyl-1H-indazo-1-yl)-2-methoxypyrimidin-4-yl)piperazin-2-one] |
| ≤ 1 µM | COc1nc(N2CC(C(C)O)C2)cc(-n2ncc3cc(C)c(C4CCN(C5CCOC5)CC4)cc32)n1 (single isomer, unassigned) [Example E99, 1-(1-(2-methoxy-6-(5-methyl-6-(1-(tetrahydrofuran-3-yl)piperidin-4-yl)-1H-indazol-1-yl)pyrimidin-4-yl)azetidin-3-yl)ethanol] |
| ≤ 0.01 µM | COc1nc(N2CCO[C@H](CO)C2)cc(-n2ncc3cc(C)c(C4CCN(C5CCOC5)CC4F)cc32)n1 (single isomer, unassigned) [Example E121] |
| ≤ 0.01 µM | COc1nc(N2CCO[C@H](CO)C2)cc(-n2ncc3cc(C)c(C4CCN(C5CCOC5)CC4F)cc32)n1 (single isomer, unassigned) [Example E122] |
| ≤ 1 µM | Cc1nc(OC2CC(O)C2)cc(-n2ncc3cc(C)c(C4CCN(C5CCOC5)CC4)cc32)n1 (single isomer, unassigned) [Example E145, 3-((2-methyl-6-(5-methyl-6-(1-(tetrahydrofuran-3-yl)piperidin-4-yl)-1H-indazol-1-yl)pyrimidin-4-yl)oxy)cyclobutanol] |
| ≤ 1 µM | Cc1nc(N[C@@H]2CCOC2)cc(-n2ncc3cc(C)c(C4CCN(C5CCOC5)CC4)cc32)n1 (stereo partly drawn) [Example E143, 2-methyl-6-(5-methyl-6-(1-(tetrahydrofuran-3-yl)piperidin-4-yl)-1H-indazol-1-yl)-N—((R)-tetrahydrofuran-3-yl)pyrimidin-4-amine] |
